These results are taken from US20260242478A1, “ANTIBODIES FOR TARGETING PSMA AND CD28 AND USES THEREOF” (Janux Therapeutics, Inc., priority 2023, published 2026).

Bounds are passed on as bounds.

Test [1] deals with anti-CD28 Fab (SEQ ID NOs: 696, 697). The test can be described thus: anti-CD28 Fab binding to peptides, ELISA. The conditions noted are these: for EC50: anti-CD28 Fab. (In an ELISA, binding on a coated surface is turned into a signal by an enzyme label.)
The target of test [2] is anti-CD28 Fab (SEQ ID NOs: 696, 697) binding to CD28 antigen. Description: Inhibition of anti-CD28 Fab binding to CD28 by peptides, competition ELISA (incl. alanine scanning). The conditions noted are these: Table 25; anti-CD28 Fab fixed at 1 nM, 0-100 μM peptides.
In test [3] the target is anti-CD28 scFv (disulfide) (SEQ ID NO: 10) binding to CD28 antigen. The test can be described thus: Inhibition of anti-CD28 scFv (disulfide) binding to CD28 by peptides, competition ELISA. The conditions noted are these: anti-CD28 scFv (disulfide) fixed at 0.3 nM, 0-100 μM peptides.
The test system of test [4] is PSMA Fab (SEQ ID NOs: 19, 20). Description: PSMA Fab binding to peptides, ELISA. The conditions noted are these: for EC50: PSMA Fab binding to biotinylated peptide, ELISA. Here is the method:
Peptides of Table 9 were evaluated for their ability to bind to PSMA Fab in a standard enzyme linked immunosorbent assay (ELISA) format. […] PSMA Fab diluted in buffer was then added to the peptide captured plates. Bound antibody was detected using a standard horse radish peroxidase conjugate secondary antibody.

Test [5] has as its system PSMA Fab (SEQ ID NOs: 19, 20). Description: Kinetic binding of peptides to PSMA Fab, BLI. Here is the method: Kinetic binding of the peptides of Table 9 to PSMA Fab (SEQ ID NOs: 19, 20) was evaluated using biolayer interferometry (BLI). Briefly, biotinylated peptides were loaded onto a streptavidin coated Octet® V SAX biosensor, quenched in biocytin, and baselined in buffer. […] After a short association period, sensors were transferred into buffer and the dissociation of bound Ab-1 was measured. Association and dissociation signals were recorded in real time and analyzed using a 1:1 binding model within the instrument software. Analysis using a 1:1 binding model enabled the calculation of the on and off rate constant as well as affinity, Kn.

The target of test [6] is Ab-15 (anti-CD28 scFv of SEQ ID NO: 9). The test can be described thus: Ab-15 (anti-CD28 scFv) binding to peptides, ELISA. The conditions noted are these: Table 20; Ab-15 binding to plate-captured biotinylated peptide or CD28-biotin. Also noted: species or system human. As for the experimental part: Ab-15 diluted in buffer was then added to the peptide captured plates. Bound antibody was detected using a standard horse radish peroxidase conjugate secondary antibody.

For test [7], the target named is anti-CD28 scFv harbored in Ab-15 binding to the CD28 antigen. The test can be described thus: Inhibition of Ab-15 binding to CD28 by peptides, competition ELISA. As to conditions: Table 20; fixed Ab-15 pre-incubated with 0-100 μM titrated peptide, CD28 antigen coated plates. As for the experimental part:
Ab-15 fixed at I nanomolar (nM) concentration was pre-incubated with 0-100 micromolar (μM) titrated peptides. After a short pre-incubation period, the mixture of titrated peptide with fixed Ab-15 were added to the CD28 antigen coated plates. After a short incubation on the plates, bound Ab-15 was detected with a standard horse radish peroxidase conjugated secondary antibody.

Test [8] concerns the target anti-CD28 scFv (disulfide) (SEQ ID NO: 10). Description: anti-CD28 scFv (disulfide) binding to peptides, ELISA. As to conditions: Table 27. As for the experimental part: Peptides were evaluated for their ability to bind to ant-CD28 Fab (SEQ ID NOs: 696.697) or anti-CD28 scFv (disulfide) (SEQ ID NO: 10) in a standard ELISA format as described above.

What is called EC50 is the concentration at which the effect is half-maximal. Broadly, the IC50 is the concentration needed to halve the response being measured. LCKPGVPYKWPTCL [Peptide-156] came in with a half-maximal effective concentration (EC50) in test [1] (Table 25) of over 1000 nM. In test [2], this sequence displayed a concentration for half-maximal inhibition (IC50) of over 100000 nM.

In test [3] (Table 29), SCAAGASYAWPYCA [Peptide-106] showed a half-inhibitory concentration (IC50) of over 100000 nM.

For LMKWCTPRWMCAAE [Peptide-179], the “binding to the PSMA Fab” value in test [4] was “strong binding”. The EC50 in test [4] (Table 38) stood at 5.9 nM; in test [4] (Table 39) it was 120 nM. The “Off rate t1/2” value is under 1 min in test [5] (Table 38, 1:1 binding model) and 1.09 min in test [5] (Table 39, 1:1 binding model).

YCAGHAWQYANKCL [Peptide-113] registered an IC50 in test [3] (Table 29) of over 100000 nM.

Turning to CFYAEYYDQVYSFC [Peptide-18], in test [6], the concentration for a half-maximal effect (EC50) is 32.2 nM. In test [7], this sequence displayed a 50% inhibitory concentration (IC50) of 3250 nM.

The sequence LCAAGFTYPWPLCL [Peptide-155] came in with a half-maximal effective concentration (EC50) in test [1] (Table 25) of over 1000 nM. The 50% inhibitory concentration (IC50) in test [2] is over 100000 nM.

As for SCAAGASYAWPYCL [Peptide-92], the “binding to the anti-CD28 Fab” value in test [1] is recorded as “strong binding”. Further, the EC50 in test [1] (Table 24) is 54 nM; in test [1] (Table 25) it was 18.9 nM; in test [8], over 1000 nM. This sequence also returned a 50% inhibitory concentration (IC50) in test [3] (Table 27) of over 100000 nM.

Regarding ADWCPRERWVDCFF [Peptide-19], the half-maximal effective concentration (EC50) in test [6] came out at 32.5 nM. This sequence yielded a half-inhibitory concentration (IC50) in test [7] of 4420 nM.
